Assay: Storage stability of crystalline forms at room temperature for two years (form by XRD)
Type: physicochemical
Details: for Crystal form after 2 years: 1 g sample in closed glass bottle, room temperature, form by XRD, monosodium salt
Experimental: The x-ray powder diffraction was performed on Scintag X-ray powder diffractometer model X'TRA with a solid state detector at room temperature. Copper radiation of 1.5418 Å was used. The sample holder was a round standard aluminum sample holder with rough zero background. The scanning parameters were range: 2-40 degrees two-theta; scan mode: continuous scan; step size: 0.05 degrees; and at a rate of 5 degrees/minute.
1 g samples of crystalline ibandronate sodium Forms K1, D, J, H, E, Q2, QQ, K3, Q4, L, G, C, S, R, Q3, K, and Q6, as well as amorphous form were each placed into separate glass bottles, which were then closed and stored at room temperature for 2 years.

Row | SMILES | Crystal form after 2 years (listed as H) | Crystal form after 2 years | Stability of crystalline form on storage (about 15° C. to about 30° C. for more than about 3 months, as described in Example 7) | Retention of crystalline form after storage (room temperature for two years)
1 | CCCCCN(C)CCC(O)(P(=O)([O-])O)P(=O)(O)O.[Na+] [Form H, (1-hydroxy-3-(N-methyl-N-pentylamino)propylidene) bisphosphonic acid monosodium salt] | H + V | mixture of crystalline ibandronate sodium Forms H and V | – | –
2 | CCCCCN(C)CCC(O)(P(=O)([O-])O)P(=O)(O)O.[Na+] [Form C, (1-hydroxy-3-(N-methyl-N-pentylamino)propylidene) bisphosphonic acid monosodium salt] | – | Form V | – | –
3 | CCCCCN(C)CCC(O)(P(=O)([O-])O)P(=O)(O)O.[Na+] [Form D, (1-hydroxy-3-(N-methyl-N-pentylamino)propylidene) bisphosphonic acid monosodium salt] | – | – | stable | maintained their crystalline form
4 | CCCCCN(C)CCC(O)(P(=O)([O-])O)P(=O)(O)O.[Na+] [Form S, (1-hydroxy-3-(N-methyl-N-pentylamino)propylidene) bisphosphonic acid monosodium salt] | – | Q plus additional XRD reflections at 10.4, | – | –
